Bridge positions count the residues as written; N and C are the ends. Square brackets hold non-standard residues; d marks the D form. Peptide text beside a SMILES is read from it. S5 = C=CCCC[C@](C)(N)C(=O)O
Test system: SARS-CoV-2 pseudovirus
Details: 48 h, 735 μM

Row | Structure (SMILES) | Inhibition of the pseudovirus
1 | CC(=O)N[C@@H](Cc1c[nH]cn1)C(=O)N[C@@H](CCC(=O)O)C(=O)N[C@H]1CCCCNC(=O)C[C@@H](C(=O)N[C@@H](Cc2ccc(O)cc2)C(=O)N[C@@H](CCC(N)=O)C(N)=O)NC(=O)[C@H](CC(C)C)NC(=O)[C@H](CC(=O)O)NC(=O)[C@H](CCC(=O)O)NC1=O [peptide 4, Ac-NH-His-Glu-[Lys-Glu-Asp-Leu-Asp]-Tyr-Gln-CO-NH2] (Ac-HEKEDLDYQ-NH2; lactam 3-7) | 48%
2 | CC(=O)N[C@@H](Cc1c[nH]cn1)C(=O)N[C@@H](CCC(=O)O)C(=O)N[C@@]1(C)CCC/C=C/CCC[C@@](C)(C(=O)N[C@@H](Cc2ccc(O)cc2)C(=O)N[C@@H](CCC(N)=O)C(N)=O)NC(=O)[C@H](CC(C)C)NC(=O)[C@H](CC(=O)O)NC(=O)[C@H](CCC(=O)O)NC1=O [peptide 11, Ac-NH-His-Glu-[S5-Glu-Asp-Leu-S5]-Tyr-Gln-CO-NH2] (Ac-HE[S5]EDL[S5]YQ-NH2; staple (E) 3-7) | 68%

From publication PMC10778704, “Comparative Analysis of Cyclization Techniques in Stapled Peptides: Structural Insights into Protein–Protein Interactions in a SARS-CoV-2 Spike RBD/hACE2 Model System” (International Journal of Molecular Sciences, 2023)
